Reference: ChEMBL document CHEMBL3792311, “In vitro and in vivo activity of ML302F: a thioenolate inhibitor of VIM-subfamily metallo -lactamases” (Medchemcomm, 2016)
Values after ≈ are worked out from the molar mass of the structure shown.

Legend:
Assay type in all cases: functional
[1] = test system: Klebsiella pneumoniae; experiment: Antibacterial activity against VIM1 carbapenemase producing multidrug-resistant Klebsiella pneumoniae GR54 clinical isolate by broth microtiter dilution method
[2] = test system: Klebsiella pneumoniae; experiment: Antibacterial activity against VIM1 carbapenemase producing multidrug-resistant Klebsiella pneumoniae 177 clinical isolate by broth microtiter dilution method
[3] = test system: Providencia stuartii; experiment: Antibacterial activity against VIM1 carbapenemase producing multidrug-resistant Providencia stuartii 67 clinical isolate by broth microtiter dilution method
[4] = test system: Providencia stuartii; experiment: Antibacterial activity against VIM1 carbapenemase producing multidrug-resistant Providencia stuartii 70 clinical isolate by broth microtiter dilution method
[5] = test system: Pseudomonas aeruginosa; experiment: Antibacterial activity against VIM2 carbapenemase producing multidrug-resistant Pseudomonas aeruginosa 47 clinical isolate by broth microtiter dilution method
[6] = test system: Pseudomonas aeruginosa; experiment: Antibacterial activity against VIM2 carbapenemase producing multidrug-resistant Pseudomonas aeruginosa 50 clinical isolate by broth microtiter dilution method
[7] = test system: Pseudomonas aeruginosa; experiment: Antibacterial activity against VIM2 carbapenemase producing multidrug-resistant Pseudomonas aeruginosa GR57 clinical isolate by broth microtiter dilution method
[8] = test system: Pseudomonas aeruginosa; experiment: Antibacterial activity against VIM2 carbapenemase producing multidrug-resistant Pseudomonas aeruginosa GR58 clinical isolate by broth microtiter dilution method
[9] = test system: Pseudomonas aeruginosa; experiment: Antibacterial activity against VIM2 carbapenemase producing multidrug-resistant Pseudomonas aeruginosa GR64 clinical isolate by broth microtiter dilution method
[10] = test system: Pseudomonas aeruginosa; experiment: Antibacterial activity against VIM2 carbapenemase producing multidrug-resistant Pseudomonas aeruginosa 8 clinical isolate by broth microtiter dilution method
[11] = test system: Pseudomonas aeruginosa; experiment: Antibacterial activity against VIM2 carbapenemase producing multidrug-resistant Pseudomonas aeruginosa 9 clinical isolate by broth microtiter dilution method
[12] = test system: Klebsiella pneumoniae; experiment: Antibacterial activity against VIM4 carbapenemase producing multidrug-resistant Klebsiella pneumoniae 128 clinical isolate by broth microtiter dilution method
[13] = test system: Klebsiella pneumoniae; experiment: Antibacterial activity against VIM4 carbapenemase producing multidrug-resistant Klebsiella pneumoniae 101 clinical isolate by broth microtiter dilution method
[14] = test system: Enterobacter cloacae; experiment: Antibacterial activity against VIM4 carbapenemase producing multidrug-resistant Enterobacter cloacae 102 clinical isolate by broth microtiter dilution method
[15] = test system: Klebsiella oxytoca; experiment: Antibacterial activity against VIM4 carbapenemase producing multidrug-resistant Klebsiella oxytoca 126 clinical isolate by broth microtiter dilution method
[16] = test system: Klebsiella oxytoca; experiment: Antibacterial activity against VIM4 carbapenemase producing multidrug-resistant Klebsiella oxytoca 95 clinical isolate by broth microtiter dilution method
[17] = test system: Pseudomonas aeruginosa; experiment: Antibacterial activity against VIM2 carbapenemase producing multidrug-resistant Pseudomonas aeruginosa 11 clinical isolate by broth microtiter dilution method
[18] = test system: Pseudomonas aeruginosa; experiment: Antibacterial activity against VIM2 carbapenemase producing multidrug-resistant Pseudomonas aeruginosa 6 clinical isolate by broth microtiter dilution method
[19] = test system: Pseudomonas aeruginosa; experiment: Antibacterial activity against VIM2 carbapenemase producing multidrug-resistant Pseudomonas aeruginosa 12 clinical isolate by broth microtiter dilution method
[20] = test system: Pseudomonas aeruginosa; experiment: Antibacterial activity against VIM2 carbapenemase producing multidrug-resistant Pseudomonas aeruginosa 13 clinical isolate by broth microtiter dilution method
[21] = test system: Pseudomonas aeruginosa; experiment: Antibacterial activity against VIM2 carbapenemase producing multidrug-resistant Pseudomonas aeruginosa GR57 clinical isolate infected in Galleria mellonella larvae assessed as survival rate at 0.6 mg/kg measured at 96 hrs; conditions: GR57, 96 h
[22] = test system: Escherichia coli; experiment: Antibacterial activity against VIM4 carbapenemase producing multidrug-resistant Escherichia coli 98 clinical isolate infected in Galleria mellonella larvae assessed as survival rate at 0.6 mg/kg measured at 96 hrs; conditions: Escherichia coli, 98, 96 h
[23] = test system: Klebsiella pneumoniae; experiment: Antibacterial activity against VIM4 carbapenemase producing multidrug-resistant Klebsiella pneumoniae 120 clinical isolate infected in Galleria mellonella larvae assessed as survival rate at 0.6 mg/kg measured at 96 hrs; conditions: Klebsiella pneumoniae, 120, 96 h
[24] = test system: Pseudomonas aeruginosa; experiment: Antibacterial activity against VIM2 carbapenemase producing multidrug-resistant Pseudomonas aeruginosa GR62 clinical isolate by broth microtiter dilution method

Which results are given for C[C@@H](O)[C@H]1C(=O)N2C(C(=O)O)=C(S[C@@H]3CN[C@H](C(=O)N(C)C)C3)[C@H](C)[C@H]12 [MEROPENEM]?
MIC [1]: 128 µg/mL (≈ 334 µM); MIC [2]: 1 µg/mL (≈ 2.61 µM); MIC [3]: 8 µg/mL (≈ 20.9 µM); MIC [4]: 8 µg/mL (≈ 20.9 µM); MIC [5]: 32 µg/mL (≈ 83.4 µM); MIC [6]: 32 µg/mL (≈ 83.4 µM); MIC [7]: 32 µg/mL (≈ 83.4 µM); MIC [8]: 32 µg/mL (≈ 83.4 µM); MIC [9]: 32 µg/mL (≈ 83.4 µM); MIC [10]: 128 µg/mL (≈ 334 µM); MIC [11]: 128 µg/mL (≈ 334 µM); MIC [12]: 4 µg/mL (≈ 10.4 µM); MIC [13]: 32 µg/mL (≈ 83.4 µM); MIC [14]: 32 µg/mL (≈ 83.4 µM); MIC [15]: 32 µg/mL (≈ 83.4 µM); MIC [16]: 32 µg/mL (≈ 83.4 µM); MIC [17]: 32 µg/mL (≈ 83.4 µM); MIC [18]: 128 µg/mL (≈ 334 µM); MIC [19]: 128 µg/mL (≈ 334 µM); MIC [20]: 32 µg/mL (≈ 83.4 µM); survival at 0.6 mg/kg [21]: 23%; survival at 0.6 mg/kg [22]: 44%; survival at 0.6 mg/kg [23]: 69%; MIC [24]: 32 µg/mL (≈ 83.4 µM)
